What is called IC50 is the midpoint of a concentration-inhibition curve. Higher therefore signals a need for much substance.

One assay has as its system Kasumi 1. The assay is described as follows: cells. The format is functional, cell-based, Homo sapiens. Conditions: Homo sapiens, Kasumi 1.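 Further: growth inhibition of human Kasumi-1 cells, read out by a cell viability assay.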
The test system of a further assay is EB2. The assay is described as follows: cells. It is filed as functional, cell-based, Homo sapiens. Particulars: Homo sapiens, EB2.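 Further: growth inhibition of EB2 cells, read out with a cell viability assay.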
Another assay deals with IMR-5. The assay is described as follows: cells. It is filed as functional, cell-based, Homo sapiens. Conditions: Homo sapiens, IMR-5.
The next assay has as its system BL-70. The assay is described as follows: SANGER: Inhibition of human BL-70 cell growth in a cell viability assay. Conditions: Homo sapiens, BL-70. It is filed as functional, cell-based.
The subject of a further assay is SUP-T1. The assay is described as follows: cells. The format is functional, cell-based, Homo sapiens. Particulars: Homo sapiens, SUP-T1.
The subject of the next assay is DG-75. The assay is described as follows: cells. The format is functional, cell-based, Homo sapiens. Conditions: Homo sapiens, DG-75.
Another assay has as its system NCI-H1963. The assay is described as follows: cells. It is filed as functional, cell-based, Homo sapiens. Particulars: Homo sapiens, NCI-H1963.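 Further: cell growth inhibition of the human line, determined with a cell viability assay.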
Another assay deals with CAL-148. The assay is described as follows: cells. The format is functional, cell-based, Homo sapiens. Conditions: Homo sapiens, CAL-148.
Another assay has as its system LU-165. The assay is described as follows: cells. It is filed as functional, cell-based, Homo sapiens. Conditions: Homo sapiens, LU-165.
The test system of a further assay is SCLC-21H. Put plainly: cells. It is filed as functional, cell-based, Homo sapiens. Conditions: Homo sapiens, SCLC-21H.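 Further: growth inhibition of cultured human SCLC-21H cells, read out with a cell viability assay.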
The subject of another assay is COR-L279. Put plainly: SANGER: Inhibition of human COR-L279 cell growth in a cell viability assay. Conditions: Homo sapiens, COR-L279. It is filed as functional, cell-based.
A further assay deals with NCI-H2081. The assay is described as follows: cells. The format is functional, cell-based, Homo sapiens. Conditions: Homo sapiens, NCI-H2081.
The subject of a further assay is LB647-SCLC. Put plainly: cells. It is filed as functional, cell-based, Homo sapiens. Particulars: Homo sapiens, LB647-SCLC.
In a further assay the test system is MONO-MAC-6. The assay is described as follows: cells. It is filed as functional, cell-based, Homo sapiens. Conditions: Homo sapiens, MONO-MAC-6.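 Further: cell viability assay measuring growth inhibition of human MONO-MAC-6 cells.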
In another assay the test system is NCI-H2171. The assay is described as follows: cells. Conditions: Homo sapiens, NCI-H2171. It is filed as functional, cell-based, Homo sapiens.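 Further: growth inhibition of human NCI-H2171 cells, read out by a cell viability assay.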

Description for CAL-148: SANGER: Inhibition of human CAL-148 cell growth in a cell viability assay.
Description for DG-75: SANGER: Inhibition of human DG-75 cell growth in a cell viability assay.
Description for EB2: SANGER: Inhibition of human EB2 cell growth in a cell viability assay.
Description for IMR-5: SANGER: Inhibition of human IMR-5 cell growth in a cell viability assay.
Description for Kasumi 1: SANGER: Inhibition of human KASUMI-1 cell growth in a cell viability assay.
Description for LB647-SCLC: SANGER: Inhibition of human LB647-SCLC cell growth in a cell viability assay.
Description for LU-165: SANGER: Inhibition of human LU-165 cell growth in a cell viability assay.
Description for MONO-MAC-6: SANGER: Inhibition of human MONO-MAC-6 cell growth in a cell viability assay.
Description for NCI-H1963: SANGER: Inhibition of human NCI-H1963 cell growth in a cell viability assay.
Description for NCI-H2081: SANGER: Inhibition of human NCI-H2081 cell growth in a cell viability assay.
Description for NCI-H2171: SANGER: Inhibition of human NCI-H2171 cell growth in a cell viability assay.
Description for SCLC-21H: SANGER: Inhibition of human SCLC-21H cell growth in a cell viability assay.
Description for SUP-T1: SANGER: Inhibition of human SUP-T1 cell growth in a cell viability assay.

For `CC[C@H](CO)Nc1nc(NCc2ccccc2)c2ncn(C(C)C)c2n1` [SELICICLIB], the IC50 in the assay with Kasumi 1, with EB2, in the assay with IMR-5, in the assay with BL-70, with SUP-T1 and with DG-75 was over 16 µM throughout. Also, the 50% inhibitory concentration (IC50) in the assay on NCI-H1963 is over 16 µM; with CAL-148, over 16 µM; in the assay on LU-165, over 16 µM; in the assay on SCLC-21H, over 16 µM; with COR-L279 it was 12.3 µM; in the assay on NCI-H2081 it was over 16 µM. In addition, the IC50 in the assay on LB647-SCLC, with MONO-MAC-6 and in the assay on NCI-H2171 was over 16 µM in each case.

Consider `C#Cc1cccc(Nc2ncnc3cc(OCCOC)c(OCCOC)cc23)c1` [ERLOTINIB], for which the concentration for half-maximal inhibition (IC50) in the assay on Kasumi 1, in the assay on EB2, in the assay on IMR-5, with BL-70, with SUP-T1 and in the assay with DG-75 was over 2 µM each time. The half-inhibitory concentration (IC50) in the assay on NCI-H1963, in the assay with LU-165, with NCI-H2081, with LB647-SCLC, in the assay on MONO-MAC-6 and in the assay with NCI-H2171 was over 2 µM each time.

The values above are taken from ChEMBL document CHEMBL1201861, “Genomics of Drug Sensitity in Cancer screening data, Wellcome Trust Sanger Institute”.
